Results reported in US11802128B2, “Azetidine and pyrrolidine PARP1 inhibitors and uses thereof” (Xinthera, Inc., priority 2021, dated 2023).

Experiments:
[1] = target: PARP1 (Homo sapiens (Human), UniProt P09874); experiment: Biochemical fluorescent polarization (FP) assay, displacement of PARPi-FL; type: binding; details: 20 nM protein, 3 nM PARPi-FL, 4 h at room temperature
Description: (§1) The assay was performed utilizing the following method:
(§2) 100% DMSO was used for the high (with protein) and low (without protein) control samples. 20 nL of compound or DMSO alone was added to individual assay plate wells.
(§3) PARP1 and PARP2 protein were expressed, purified, and diluted in assay buffer containing 50 mM Tris pH 8.0, 0.001% Triton X-100, 10 mM MgCl2, 150 mM NaCl to a final concentration of 20 nM. The PARPi-FL was then added at a final concentration of 3 nM.
(§4) The assay plate is centrifuged at 1000 rpm for 1 min and incubated for 4 h at room temperature.
(§5) The fluorescent polarization is read using an Envision plate reader using the following settings: […]

[2] = target: PARP2 (Homo sapiens (Human), UniProt Q9UGN5); experiment: as above; type: binding; details: 20 nM protein, 3 nM PARPi-FL, 4 h at room temperature; read-out: IC50 FP PARP2
Description: as §1, §2, §3, §4, §5

[3] = tested on: MDA-MB-436 (mutated BRCA1) cells; experiment: Cell growth inhibition assay (CellTiter-Glo cell viability, 7 days); type: cell-based; details: Homo sapiens, 168 h, MDA-MB-436, 7 days
Excerpt: (§6) The objective of this study is to evaluate the effect of invention compounds on cell proliferation through the cell viability assay in DLD-1 BRCA2(−/−) and parental isogenic pair and MDA-MB-436 (mutated BRCA1) cell lines. The CellTiter-Glo (CTG) based cell viability assay is designed to determine the number of viable cells in the culture because of compound effect, by quantifying ATP, which indicates the presence of metabolically active cells.
(§7) DLD-1 BRCA2(−/−) and parental isogenic pair were cultured in RPMI 1640 supplemented with 10% fetal bovine serum (FBS), and MDA-MB-436 cells were cultured in DMEM supplemented with 10% FBS. Both are culture at 37° C. with 5% CO2. Invention compounds were distributed to the 384 well plate (Corning, 3764) using Echo acoustic liquid handler to form a 1:3 serially diluted final concentration with top dose of 10 or 30 μM. The cells were seeded into the plate in the density of 50 cells/well (DLD-1 parental), 200 cells/well (DLD-1 BRCA2−/−), or 500 cells/well (MDA-MB-436). After a short spun, the cells were cultured in a well moisturized incubator at 37° C. with 5% CO2 for 7 days without disturbance. The cell viability was measured by CellTiter Glo 2.0 assay kit (Promega, G9243), and growth inhibition rate was calculated and plotted against final compound concentration, and the data were fitted in Xfit to generate IC50.

[4] = tested on: DLD-1 BRCA2(−/−) cells; experiment: as above; type: cell-based; details: Homo sapiens, 168 h
Excerpt: as §6, §7

Sequence of PARP1 (P09874 whole entry): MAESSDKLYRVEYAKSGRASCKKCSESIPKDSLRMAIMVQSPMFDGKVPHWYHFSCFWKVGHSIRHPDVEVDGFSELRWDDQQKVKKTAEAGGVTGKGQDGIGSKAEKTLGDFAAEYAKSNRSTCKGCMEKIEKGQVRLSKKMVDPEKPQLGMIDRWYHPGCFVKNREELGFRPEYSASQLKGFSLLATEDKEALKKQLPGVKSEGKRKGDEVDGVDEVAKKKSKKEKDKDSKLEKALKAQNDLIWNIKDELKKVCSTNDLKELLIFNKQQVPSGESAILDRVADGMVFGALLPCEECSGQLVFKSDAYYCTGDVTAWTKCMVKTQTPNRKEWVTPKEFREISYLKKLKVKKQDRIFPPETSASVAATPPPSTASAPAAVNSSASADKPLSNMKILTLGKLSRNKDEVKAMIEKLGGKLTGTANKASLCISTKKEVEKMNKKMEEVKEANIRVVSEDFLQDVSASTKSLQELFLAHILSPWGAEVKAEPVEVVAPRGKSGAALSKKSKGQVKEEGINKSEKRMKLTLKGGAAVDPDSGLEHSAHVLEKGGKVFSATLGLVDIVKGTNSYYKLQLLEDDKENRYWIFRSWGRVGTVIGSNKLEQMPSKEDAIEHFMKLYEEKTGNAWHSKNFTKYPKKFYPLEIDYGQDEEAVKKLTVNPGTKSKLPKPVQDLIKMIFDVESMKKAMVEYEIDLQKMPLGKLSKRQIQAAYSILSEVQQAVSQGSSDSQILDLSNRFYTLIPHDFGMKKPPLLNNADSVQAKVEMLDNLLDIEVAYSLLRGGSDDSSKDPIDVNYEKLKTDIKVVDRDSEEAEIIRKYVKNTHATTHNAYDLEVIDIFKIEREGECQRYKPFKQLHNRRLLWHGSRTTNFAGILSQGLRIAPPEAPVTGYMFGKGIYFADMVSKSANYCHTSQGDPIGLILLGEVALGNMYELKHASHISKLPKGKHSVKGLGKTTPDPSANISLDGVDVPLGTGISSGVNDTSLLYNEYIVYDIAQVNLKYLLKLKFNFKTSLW
Sequence of PARP2 (Q9UGN5 whole entry): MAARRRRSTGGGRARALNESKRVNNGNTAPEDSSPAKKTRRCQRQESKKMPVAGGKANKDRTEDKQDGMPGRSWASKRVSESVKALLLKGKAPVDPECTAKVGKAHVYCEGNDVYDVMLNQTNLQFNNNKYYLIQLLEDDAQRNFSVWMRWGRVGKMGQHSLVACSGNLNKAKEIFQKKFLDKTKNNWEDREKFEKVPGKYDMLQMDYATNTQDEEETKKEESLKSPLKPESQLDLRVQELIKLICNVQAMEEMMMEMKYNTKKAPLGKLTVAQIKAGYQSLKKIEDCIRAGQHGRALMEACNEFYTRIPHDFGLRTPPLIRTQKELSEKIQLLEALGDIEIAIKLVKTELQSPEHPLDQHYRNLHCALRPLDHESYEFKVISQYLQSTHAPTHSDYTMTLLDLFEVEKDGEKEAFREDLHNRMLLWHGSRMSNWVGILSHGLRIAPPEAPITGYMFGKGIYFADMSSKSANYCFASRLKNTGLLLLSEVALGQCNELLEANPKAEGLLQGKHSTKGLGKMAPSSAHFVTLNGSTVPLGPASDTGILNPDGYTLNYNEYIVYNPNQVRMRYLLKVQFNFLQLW

Row | SMILES | IC50 [1] | IC50 [2] | EC50 [3] | EC50 [4]
1 | CCc1cc2ncc([C@@H](C)N3C[C@H](Oc4ccc(C(=O)NC)nc4)[C@H]3C)cc2[nH]c1=O (single isomer, unassigned) [Example 54, 5-{[(2R,3S)-1-[(1R*)-1-(7-ethyl-6-oxo-5H-1,5-naphthyridin-3-yl)ethyl]-2-methylazetidin-3-yl]oxy}-N-methylpyridine-2-carboxamide] | 4.5 nM | 900 nM | 0.62 nM | 1.2 nM
2 | CCc1cc2ncc([C@H](C)N3C[C@H](Oc4ccc(C(=O)NC)nc4)[C@H]3C)cc2[nH]c1=O (single isomer, unassigned) [Example 55, 5-{[(2R,3S)-1-[(1R*)-1-(7-ethyl-6-oxo-5H-1,5-naphthyridin-3-yl)ethyl]-2-methylazetidin-3-yl]oxy}-N-methylpyridine-2-carboxamide] | 6.4 nM | > 100000 nM | 12 nM | 38 nM
3 | Cc1cc2ncc([C@@H](C)N3C[C@H](Oc4ccc(C#N)nc4)[C@H]3C)cc2[nH]c1=O (single isomer, unassigned) [Example 60] | > 100 nM | > 100000 nM | > 1000 nM | > 1000 nM
4 | Cc1cc2ncc([C@H](C)N3C[C@H](Oc4ccc(C#N)nc4)[C@H]3C)cc2[nH]c1=O (single isomer, unassigned) [Example 61] | 18 nM | 23000 nM | 8.8 nM | 10 nM
5 | Cc1cc2ncc(CN3C[C@H](Oc4ccc(C(=O)N[C@H]5CC5(F)F)nc4)[C@H]3C)cc2[nH]c1=O (single isomer, unassigned) [Example 89] | 7.2 nM | 9600 nM | 1.1 nM | 1.8 nM
6 | Cc1cc2ncc(CN3C[C@H](Oc4ccc(C(=O)N[C@@H]5CC5(F)F)nc4)[C@H]3C)cc2[nH]c1=O (single isomer, unassigned) [Example 90] | 8.5 nM | 3100 nM | 1.8 nM | 2.8 nM
7 | Cc1cc2ncc(CN3CCC(Oc4ccc(C(=O)NCC(F)F)nc4)C3)cc2[nH]c1=O (stereo in doubt) [Example 10, N-(2,2-difluoroethyl)-5-{[(3R)-1-[(7-methyl-6-oxo-5H-1,5-naphthyridin-3-yl)methyl]pyrrolidin-3-yl]oxy}pyridine-2-carboxamide] | 6.8 nM | > 100000 nM | 6.8 nM | 8.8 nM
8 | CNC(=O)c1ccc(O[C@@H]2CCN(Cc3cnc4cc(C5CC5)c(=O)[nH]c4c3)C2)cn1 [Example 3, 5-{[(3R)-1-[(7-cyclopropyl-6-oxo-5H-1,5-naphthyridin-3-yl)methyl]pyrrolidin-3-yl]oxy}-N-methylpyridine-2-carboxamide] | 6.4 nM | > 100000 nM | 4.5 nM | 13 nM
9 | CCc1cc2ncc(CN3CC[C@@H](Oc4ccc(C(=O)NC5CC5)nc4)C3)cc2[nH]c1=O [Example 4, N-cyclopropyl-5-{[(3R)-1-[(7-ethyl-6-oxo-5H-1,5-naphthyridin-3-yl)methyl]pyrrolidin-3-yl]oxy}pyridine-2-carboxamide] | 5.8 nM | 11000 nM | 1.1 nM | 2 nM
10 | Cc1cc2ncc(CN3CC[C@@H](Oc4ccc(C(=O)NC5CC5)nc4)C3)cc2[nH]c1=O [Example 7, N-cyclopropyl-5-{[(3R)-1-[(7-methyl-6-oxo-5H-1,5-naphthyridin-3-yl)methyl]pyrrolidin-3-yl]oxy}pyridine-2-carboxamide] | 7.4 nM | 66000 nM | 8.3 nM | 13 nM
11 | CCc1cc2ncc(CN3CC[C@@](C)(Oc4ccc(C(=O)NC)nc4)C3)cc2[nH]c1=O [Example 12, 5-{[(3R)-1-[(7-ethyl-6-oxo-5H-1,5-naphthyridin-3-yl)methyl]-3-methylpyrrolidin-3-yl]oxy}-N-methylpyridine-2-carboxamide] | 6.6 nM | 62000 nM | 36 nM | 83 nM
12 | CCc1cc2ncc(CN3CC(Nc4ccc(C(=O)NC)nc4)C3)cc2[nH]c1=O [Example 14, 5-({1-[(7-ethyl-6-oxo-5H-1,5-naphthyridin-3-yl)methyl]azetidin-3-yl}amino)-N-methylpyridine-2-carboxamide] | 5.2 nM | 14000 nM | 4.1 nM | 9.8 nM
13 | CCc1cc2ncc(CN3C[C@H](Oc4ccc(C(=O)NC)nc4)[C@H]3C)cc2[nH]c1=O [Example 17, 5-{[(2R,3S)-1-[(7-ethyl-6-oxo-5H-1,5-naphthyridin-3-yl)methyl]-2-methylazetidin-3-yl]oxy}-N-methylpyridine-2-carboxamide] | 7.3 nM | 21000 nM | 0.79 nM | 1.2 nM
14 | CCc1cc2ncc(CN3C[C@H](Oc4ccc(C(=O)NC)nc4)[C@@H]3C)cc2[nH]c1=O [Example 20, 5-(((2S,3S)-1-((7-ethyl-6-oxo-5,6-dihydro-1,5-naphthyridin-3-yl)methyl)-2-methylazetidin-3-yl)oxy)-N-methylpicolinamide] | 5.6 nM | 19000 nM | 35 nM | 40 nM
15 | CCc1cc2ncc(CN3CC(Oc4ccc(C(=O)NC5CC5)nc4)C3)cc2[nH]c1=O [Example 21, N-cyclopropyl-5-({1-[(7-ethyl-6-oxo-5H-1,5-naphthyridin-3-yl)methyl]azetidin-3-yl}oxy)pyridine-2-carboxamide] | 6.6 nM | 14000 nM | 1.2 nM | 1.8 nM
16 | [2H]C([2H])([2H])NC(=O)c1ccc(O[C@H]2CN(Cc3ccc4nc(CC)c(=O)[nH]c4c3F)[C@@H]2C)c(F)n1 [Example 110, 5-{[(2R,3S)-1-[(2-ethyl-5-fluoro-3-oxo-4H-quinoxalin-6-yl)methyl]-2-methylazetidin-3-yl]oxy}-6-fluoro-N-methyl-d3 pyridine-2-carboxamide] |  |  | 9.4 nM | 14 nM
17 | [2H]C([2H])(c1ccc2nc(CC)c(=O)[nH]c2c1F)N1C[C@H](Oc2ccc(C(=O)NC)nc2F)[C@H]1C [Example 111] |  |  | 13 nM | 15 nM
18 | [2H]C([2H])(c1ccc2nc(CC)c(=O)[nH]c2c1F)N1C[C@H](Oc2ccc(C(=O)NC3CC3)nc2F)[C@H]1C [Example 112] |  |  | 2.6 nM | 4.7 nM
19 | CNC(=O)c1ccc(O[C@H]2CN(Cc3ccc4c([nH]c(=O)c5ccnn54)c3F)[C@@H]2C)cn1 [Example 113, 5-{[(2R,3S)-1-({6-fluoro-4-oxo-5H-pyrazolo[1,5-a]quinoxalin-7-yl}methyl)-2-methylazetidin-3-yl]oxy}-N-methylpyridine-2-carboxamide] |  |  | 8.7 nM | 16 nM
20 | Cc1cc2c(=O)[nH]c3c(F)c(CN4C[C@H](Oc5ccc(C(=O)NC6CC6)nc5)[C@H]4C)ccc3n2n1 [Example 114] |  |  | 3.6 nM | 5.9 nM
21 | CNC(=O)c1ccc(O[C@H]2CN(Cc3ccc4c5c(c(=O)[nH]c4c3F)CCO5)[C@@H]2C)cn1 [Example 115, 5-{[(2R,3S)-1-({6-fluoro-4-oxo-2H,3H,5H-furo[3,2-c]quinolin-7-yl}methyl)-2-methylazetidin-3-yl]oxy}-N-methylpyridine-2-carboxamide] |  |  | 170 nM | 170 nM
22 | C[C@@H]1[C@@H](Oc2ccc(C(=O)NC3CC3)nc2)CN1Cc1ccc2c3c(c(=O)[nH]c2c1F)CCO3 [Example 116] |  |  | 3.3 nM | 13 nM
23 | CCc1nc2ccc(CN3CC(Oc4ccc(C(=O)NC5CC5)nc4)C3)c(F)c2[nH]c1=O [Example 117] |  |  | 13 nM | 13 nM
24 | CCc1cc2ccc(CN3CC(Oc4ccc(C(=O)NC5CC5)nc4)C3)c(F)c2[nH]c1=O [Example 118] |  |  | 22 nM | 24 nM
25 | C[C@@H]1[C@@H](Oc2ccc(C(=O)NCC(F)F)nc2)CN1Cc1ccc2c([nH]c(=O)c3ccnn32)c1F [Example 119] |  |  | 4.4 nM | 6.8 nM
26 | C[C@@H]1[C@@H](Oc2ccc(C(=O)NCC(F)F)nc2)CN1Cc1ccc2c3c(c(=O)[nH]c2c1F)CCO3 [Example 120] |  |  | 8.7 nM | 21 nM
27 | CNC(=O)c1ccc(O[C@H]2CN(Cc3ccc4c([nH]c(=O)c5c(F)cnn54)c3F)[C@@H]2C)cn1 [Example 121, 5-{[(2R,3S)-1-({3,6-difluoro-4-oxo-5H-pyrazolo[1,5-a]quinoxalin-7-yl}methyl)-2-methylazetidin-3-yl]oxy}-N-methylpyridine-2-carboxamide] |  |  | 1.8 nM | 1.2 nM
